The nature of data set [1]: Half life in Sprague-Dawley rat brain homogenate at 2.075 mg/mL. The class given is ADME, tissue-based.
A short description of data set [2]: Half life in human plasma at 2.05 mg/mL. The class given is ADME, cell-free.
Data set [3] in a line: n-octanol-phosphate buffer apparent distribution coefficient, log D of the compound at pH 7.4 by shake flask method. The class given is physicochemical.

This passage reports half-life and logD results from ChEMBL document CHEMBL3875156, “Design, synthesis and preliminary evaluation of dopamine-amino acid conjugates as potential D1 dopaminergic modulators” (Eur J Med Chem, 2016).

As usually defined, the half-life is how long it takes for the measured level to halve. The low end stands for fast loss, the high end for slow loss. A word on the logD: it is the decadic logarithm of the distribution of all forms, ionised or not, between an organic phase and buffer at a given pH. `N[C@@H](Cc1c[nH]c2ccccc12)C(=O)NCCc1ccc(O)c(O)c1`: the half-life in data set [1] was 1.33 h; in data set [2] it was 2 h. The logD in data set [3] stood at 0.5.
The corresponding values for `CC(C)C[C@H](N)C(=O)NCCc1ccc(O)c(O)c1` are 3.22 h, 0.767 h and 0.18.
